One data set is described as follows: Proteinuria in patients. The class given is in vivo, human. To be noted: for induction of proteinuria: in some patients, dose not stated.
Data set [1] can be described thus: Double blind, placebo controlled, crossover study, urine protein/creatinine ratio (Example 2). The class given is in vivo, human. To be noted: 80 mg/day, four weeks. The protocol:
(§1) "Significant increase or decrease" for proteinuria effects is herein defined as an increase or decrease having statistical significance as determined by conducting an analysis of variance (ANOVA). First, a regression line is fitted to protein/creatinine (PC) ratio data for each patient and treatment period, and a slope is determined. The slope is then analyzed using an ANOVA to test for sequence, period and treatment effects, to determine if a difference exists between the control and treated groups.
(§2) Large amounts of creatinine and much smaller amounts of protein are normally excreted in the urine of normal human subjects, and a protein/creatinine ratio of approximately 0.05 to 0.1 is usually maintained.
Using a double blind, placebo controlled, crossover design, 6-chloro-5-fluoro-3-(2-thenoyl)-2-oxindole-1-carboxamide was administered to 25 patients at a dose level of 80 mg/day. Patients were randomized to receive either 6-chloro-5-fluoro-3-(2-thenoyl)-2-oxindole-1-carboxamide for four weeks followed by placebo for four weeks, or to receive placebo for four weeks followed by 6-chloro-5-fluoro-3-(2-thenoyl)-2-oxindole-1-carboxamide for four weeks. Patients could switch to the second leg of the treatment regimen earlier if symptoms became intolerable. […] Urine protein/creatinine ratio was determined at baseline and weekly during the study. […]

The test system of data set [2] is PBQ-induced abdominal stretching in mice. Nature of the data set: Blockage of abdominal stretching induced by 2-phenyl-1,4-benzoquinone (PBQ). The data set is classed as in vivo, mice (Carworth males, albino CF-1 strain). As to conditions: oral, one hour before PBQ 2 mg/kg intraperitoneally. How it is done: The method is based on that of Siegmund et al., Proc. Soc. Exp. Biol. Med., 95, 729-731, (1957), as adapted for high throughput [see further Milne and Twomey, Agents and Actions, 10, 31-37, (1980)]. The mice used in these experiments are Carworth males, albino CF-1 strain, weighing 18-20 g. All mice are fasted overnight prior to drug administration and testing.
6-Chloro-5-fluoro-3-(2-thenoyl)-2-oxindole-1-carboxamide is dissolved or suspended in a vehicle consisting of ethanol (5%), emulphor 620 (a mixture of polyoxyethylene fatty acid esters, 5%) and saline (90%). This vehicle also served as control. Doses are on a logarithmic scale (i.e., . . . 0.32, 1.0, 3.2, […] . . . mg/kg), and are calculated from weights of the salt when applicable. The route of administration is oral, with concentrations varied to allow a constant dosage of 10 ml/kg of mouse. The aforesaid method of Milne and Towney is used to determine efficacy and potency. […] Individual mice are then immediately placed in a warmed lucite chamber, and, starting five minutes after PBQ administration, the number of abdominal constrictions during the subsequent 5 minutes are recorded. The degree of analgesic protection, Maximal Possible Effect (% MPE), is calculated on the basis of suppression of abdominal constriction relative to counts from concurrent control animals run on the same day. […]

Data set [3] deals with carrageenin-induced rat-foot edema. As to the kind of experiment: Carrageenin-induced rat-foot edema test. The data set is classed as in vivo, rats (adult, male, albino). As to conditions: by gavage, one hour before carrageenin. An excerpt: [Winter et al., Proc. Soc. Exp. Biol. Med., 111, 544, (1963)].
Unanesthetized, adult, male, albino rats of 150 g to 190 g body weight are numbered, weighed, and an ink mark placed on the right lateral malleolus. Each paw is immersed in mercury exactly to the ink mark. The mercury is contained in a glass cylinder, connected to a Statham Pressure Transducer. The output from the transducer is fed through a control unit to a microvoltameter. The volume of mercury displaced by the immersed paw is read. The drug is given by gavage. One hour after drug administration, edema is induced by injection of 0.05 ml of 1% solution of carrageenin into the plantar tissue of the marked paws. Immediately thereafter, the volume of the injected foot is measured. The increase in foot volume 3 hours after the injection of carrageenin constitutes the individual inflammatory response.

The nature of data set [4]: Double blind placebo-controlled study, urine protein/creatinine ratio (Example 1). The data set is classed as in vivo, human. How it is done: as §1, §2
Using a double blind placebo-controlled design, 6-chloro-5-fluoro-3-(2-thenoyl)-2-oxindole-1-carboxamide was administered to 36 patients at dose levels of 40, 80, 160 and 320 mg, once daily. A single dose was given on day 1, followed by a seven day washout period, and then dosing was continued for a further 21 days. […] In addition, following the 2nd, 8th and 22nd dose; and 240 hours after the last dose, one 20 ml aliquot of urine, following the first am void but prior to the administration of study medication, was withdrawn for measurement of quantitative protein and creatinine.

On to `NC(=O)N1C(=O)C(C(=O)c2cccs2)c2cc(Cl)ccc21` (stereo not shown) [5-chloro-3-(2-thenoyl)-2-oxindole-1-carboxamide], for which the patients with proteinuria in “Proteinuria in patients” (80 mg/day, within four weeks) was 10-15%. Further, the course of proteinuria result in the data set “Proteinuria in patients” (80 mg/day, upon discontinuation of medication) is “non-progressive and reversible upon discontinuation of medication”. Besides, in the data set “Proteinuria in patients”, the induction of proteinuria entry was “induce non-progressive, reversible proteinuria in some patients”.
`NC(=O)N1C(=O)C(C(=O)c2cccs2)c2cc(F)c(Cl)cc21` (stereo not shown) [6-Chloro-5-fluoro-3-(2-thenoyl)-2-oxindole-1-carboxamide]: the “change in urine protein/creatinine ratio during treatment” value in data set [1] was “No significant changes”. In addition, the “urine protein/creatinine ratio, drug vs placebo treatment” value in data set [1] (crossover) is “no significant differences”. In data set [2], the analgesic activity entry is recorded as “possess analgesic activity”. The anti-inflammatory activity entry in data set [3] is reported as “possesses anti-inflammatory activity”. The proteinuria result in data set [4] (320 mg/day) is recorded as “does not cause proteinuria”. Further, in data set [4] (40, 80, 160 and 320 mg once daily, single dose, seven day washout, then further 21 days), the “urine protein/creatinine ratio, drug treated groups vs placebo treated groups” value is “no significant differences”. In “Proteinuria in patients”, the induction of proteinuria entry is given as “does not induce proteinuria”.

(Values after US5298522A, “6-chloro-5-fluoro-3-(2-thenoyl)-2-oxindole-1-carboxamide as an analgesic and anti-inflammatory agent while maintaining a normal urine protein/creatinine ratio” (Pfizer Inc., priority 1993, dated 1994).)
